Test results from US20240024403A1, “Compositions and Methods for Managing Weight” (Unigen, Inc., priority 2012, published 2024).

Experiment: High fat diet induced obesity (DIO) mouse model
Assay type: in vivo, C57CL/6J mice
Set-up: Epididymal Fat weight / Retroperitoneal Fat weight / Total Fat (sum of the three fat deposits) / Retroperitoneal Fat / Total Fat / Epididymal Fat, absolute weight / Retroperitoneal Fat, absolute weight: unit not given here
Details: DIO mice; for Weight (total body weight) / Total Weight: in g (unit assumed); for Food Efficiency Ratio (FER): FER = body weight gain (g/day)/food intake (g/day)
Experimental: C57CL/6J mice aged 4-6 weeks (Korea Research Institute of Bioscience & Biotechnology, Ohchang, Korea) were housed in Polycarbonate cages (five mice per cage) in a room with a 12 hr:12 hr light-dark cycle and an ambient temperature of 24° C. All the mice were fed a commercial chow diet for 1 week after arrival in the animal facility. Mice were then divided into normal and obesity groups and fed with normal diet (ND) and high fat diets (HFD) respectively. The HFD group was divided into multiple treatment groups: a high fat diet vehicle group (HFD), an orlistat (purchased as OTC drug Alli®) positive control treatment group (ORI, 40 mg/kg of animal weight, 2 times/day) and optionally a sibutramine positive control treatment group (10 mg/kg, 1 time/day). The HFD contained 340 g of fat/kg of HFD (310 g lard plus 30 g soybean oil; Harlan Laboratories, USA). The HFD was formulated to provide 60% of the total energy generated by the diet from fat by replacing carbohydrate energy with lard and soybean oil, whereas the normal diet (ND) group was fed a diet providing only 18% of the total diet energy from fat(Harlan Laboratories, USA).
Body weight was measured once each week and feed intake was measured twice per week. At the end of the experimental period, following a 12 hr. fasting period, the animals were anesthetized with ether, and blood was drawn from the abdominal vein. Liver and kidney and adipose tissues (epididymal, retroperitoneal, perirenal adipose tissues) were removed from each animal, rinsed with physiological saline, and weighed. Serum concentrations of glucose, total cholesterol, triglycerides, and LDL-cholesterol were determined using automatic analyzer (INTEGRA 400, Roche, Germany). Statistical significance of test results was measured using the Student's t-test.

[1] = oral, week 3, ORI 40 mg/kg, G1 700 mg/kg (Morus:Rosemary 2:5)
[2] = oral, week 3, ORI 40 mg/kg, G1 1200 mg/kg (Morus:Yerba Mate 1:5)
[3] = oral, week 4, ORI 40 mg/kg, G1 700 mg/kg (Morus:Rosemary 2:5)
[4] = oral, week 4, ORI 40 mg/kg, G1 1200 mg/kg (Morus:Yerba Mate 1:5)
[5] = oral, week 5, ORI 40 mg/kg, G1 700 mg/kg (Morus:Rosemary 2:5)
[6] = oral, week 5, ORI 40 mg/kg, G1 1200 mg/kg (Morus:Yerba Mate 1:5)
[7] = oral, week 6, ORI 40 mg/kg, G1 700 mg/kg (Morus:Rosemary 2:5)
[8] = oral, week 6, ORI 40 mg/kg, G1 1200 mg/kg (Morus:Yerba Mate 1:5)
[9] = oral, week 7, ORI 40 mg/kg, G1 700 mg/kg (Morus:Rosemary 2:5)
[10] = oral, week 7, ORI 40 mg/kg, G1 1200 mg/kg (Morus:Yerba Mate 1:5)
[11] = seven weeks, ORI 40 mg/kg, G1 300 mg/kg (Morus:Magnolia 2:1)
[12] = seven weeks, ORI 40 mg/kg, G1 1200 mg/kg (Morus:Yerba Mate 1:5)
[13] = week 1, G1-G4 1000 mg/kg oral gavage two times per day
[14] = week 2, G1-G4 1000 mg/kg oral gavage two times per day
[15] = week 3, G1-G4 1000 mg/kg oral gavage two times per day
[16] = week 4, G1-G4 1000 mg/kg oral gavage two times per day
[17] = week 5, G1-G4 1000 mg/kg oral gavage two times per day
[18] = week 6, G1-G4 1000 mg/kg oral gavage two times per day
[19] = week 7, G1-G4 1000 mg/kg oral gavage two times per day
[20] = G1-G4 1000 mg/kg oral gavage two times per day

Compound: CCCCCCCCCCC[C@@H](C[C@@H]1OC(=O)[C@H]1CCCCCC)OC(=O)[C@H](CC(C)C)NC=O [ORI, orlistat]
- Body Weight Gain [1]: −5.91
- Weight (total body weight) [1]: 36.48
- Weight Gain [2]: −3.34
- Total Weight [2]: 35.12
- Body Weight Gain (oral, week 4, ORI 40 mg/kg, G1 300 mg/kg (Morus:Magnolia 2:1)): −2.61
- Body Weight Gain [3]: −3.82
- Weight (total body weight) [3]: 38.57
- Weight Gain [4]: −2.61
- Total Weight [4]: 35.84
- Body Weight Gain (oral, week 5, ORI 40 mg/kg, G1 300 mg/kg (Morus:Magnolia 2:1)): −2.04
- Body Weight Gain [5]: −2.33
- Weight (total body weight) [5]: 40.07
- Weight Gain [6]: −2.04
- Total Weight [6]: 36.41
- Body Weight Gain (oral, week 6, ORI 40 mg/kg, G1 300 mg/kg (Morus:Magnolia 2:1)): −1.65
- Body Weight Gain [7]: −1.44
- Weight (total body weight) [7]: 40.95
- Weight Gain [8]: −1.65
- Total Weight [8]: 36.80
- Body Weight Gain (oral, week 7, ORI 40 mg/kg, G1 300 mg/kg (Morus:Magnolia 2:1)): −0.07
- Body Weight Gain [9]: 0.60
- Weight (total body weight) [9]: 42.99
- Weight Gain [10]: −0.07
- Total Weight [10]: 38.38
- Absolute Liver Weight [11]: 1.05 g
- Body Weight Gain [11]: -0.002 g/day
- Epididymal Fat weight [11]: 1.92
- Food Intake [11]: 3.961 g/day
- Perirenal Fat weight [11]: 0.21
- Retroperitoneal Fat weight [11]: 0.55
- Total Fat (sum of the three fat deposits) [11]: 2.68
- Food Efficiency Ratio (FER) (seven weeks, ORI 40 mg/kg, G1 300 mg/kg): 0.000
- Food Intake [12]: 3.961 g/day
- Retroperitoneal Fat [12]: 0.55
- Weight Gain [12]: -0.002 g/day
- Food Efficiency Ratio (FER) (seven weeks, ORI 40 mg/kg, G1 1200 mg/kg): 0.000
- Animal Body Weight, week 0 (week 0 (baseline), G1-G4 1000 mg/kg oral gavage two times per day): 41.44 gram
- Animal Body Weight, week 1 [13]: 40.17 gram
- Weight Gain, week 1 [13]: −3.97 gram
- Animal Body Weight, week 2 [14]: 36.20 gram
- Weight Gain, week 2 [14]: −5.37 gram
- Animal Body Weight, week 3 [15]: 34.80 gram
- Weight Gain, week 3 [15]: −4.08 gram
- Animal Body Weight, week 4 [16]: 36.09 gram
- Weight Gain, week 4 [16]: −3.11 gram
- Animal Body Weight, week 5 [17]: 37.06 gram
- Weight Gain, week 5 [17]: −1.26 gram
- Animal Body Weight, week 6 [18]: 38.91 gram
- Weight Gain, week 6 [18]: 0.05 gram
- Animal Body Weight, week 7 [19]: 40.22 gram
- Weight Gain, week 7 [19]: 0.72 gram
- Weight Gain 2-week (2-week, Compositions 1, 2 1300 mg/kg/day, 3, 9 1700 mg/kg/day, orlistat 40 mg/kg 2 times/day, sibutramine 10 mg/kg 1 time/day): −5.07
- Average Feed Intake 2-week (2-week, doses as in Example 76): 2.79
- Food Efficiency Ratio (FER) 2 weeks (2 weeks, Mean, Weight Gain (g/day)/Feed Intake (g/day)): −0.223
- Weight Gain 7-week (7-week, Compositions 1, 2 1300 mg/kg/day, 3, 9 1700 mg/kg/day, orlistat 40 mg/kg 2 times/day, sibutramine 10 mg/kg 1 time/day): 0.56
- Average Feed Intake 7-week (7-week, doses as in Example 76): 3.09
- Food Efficiency Ratio (FER) 7 weeks (7 weeks, Mean, Weight Gain (g/day)/Feed Intake (g/day)): 0.005
- FER (Food efficiency ratio) (Body weight gain (g/day)/Food intake (g/day), G1 = 800 mg/kg orally twice a day): −0.001
- FER (Food efficiency ratio) (Body weight gain (g/day)/Food intake (g/day), G1 = 1,100 mg/kg orally twice a day): −0.001
- FER (Food efficiency ratio) (Body weight gain (g/day)/Food intake (g/day), G1 = 1,200 mg/kg orally twice a day): −0.001
- FER (Food efficiency ratio) (FER = Weight Gain (g/day)/Food intake (g/day)): 0.006
- Food Efficiency Ratio (FER) (SIB 10 mg/kg, ORI 40 mg/kg, Mutamba extract 32 (G1) 1000 mg/kg, mean): 0.013
- Food Efficiency Ratio (FER) (SIB 10 mg/kg, ORI 40 mg/kg, Mutamba extract 33-2 G1 1000 mg/kg, mean): 0.034
- Absolute Organ Weight, PeriRenal Fat [20]: 0.388 g
- Absolute Organ Weight, Retroperitoneal Fat [20]: 0.567 g
